Laboratory results as given in US20250049829A1, “NOVEL T[…] TARGETING THE H-RAS ISOFORM WITH G12D MUTATION INVOLVED IN CANCER FORMATION” (ISTANBUL MEDIPOL UNIVERSITESI, priority 2021, published 2025).

Target: T1, interaction of H-RASG12D with RAF (Homo sapiens, UniProt P01112, G12D)
T1 construct: expressed in transfected cells; host or cells: HEK-293T
Experiment: Active RAS pull-down (GST-Raf-RBD) and western blot in HRASG12D-overexpressing HEK-293T cells
Type: cell-based
Conditions: for active RAS levels: 293T-HRASG12D cells, pull-down with RAF, western blot
Procedure: The candidate molecules determined as a result of molecular dynamics studies were applied to HEK-293T cells at different concentrations in order to determine the cytotoxic and optimum doses for the cells. Optimum dose ranges were determined for each molecule. HEK-293T/HRASG12D cells were treated with Cerubidine […], one of these candidate molecules, and active RAS was examined due to the interaction of RAS protein in cells with RAF. In experiments carried out on this molecule; lysate was collected at different time points from cells treated with non-toxic concentrations of Cerubidine. Active RAS precipitation (Pull Down) and subsequent Western-blot experiments performed on these lysates were used to investigate the effect of Cerubidine molecule on active RAS at different time points for 12 hours in terms of G12D mutation specificity.
In the said study, HEK-293T cells with high expression of RAS proteins carrying the G12D mutation were used to examine the effect of candidate ligands on the interaction of H-RASG12D with RAF. First of all, an “Active Ras Pull-Down and Detection Kit (Thermo)” was provided to detect the interaction of the active RAS protein with RAF, and therefore the active RAS proteins involved in this interaction. Since the working principle of the kit is based on the precipitation of RAS proteins interacting with RAF, immunoprecipitation experiments were performed accordingly, since the use of the kit within the scope of this experiment was suitable for the target.
The isolated proteins were first treated with GTPyS and GDP, and then bound to the glutathione-containing column with GST-Raf-RBD. Then, the presence of the RAS protein was examined by western blot experiment in the samples collected by elution from the column.
Then, established 293T-HRAS^G12D cells were treated with Cerubudine, one of the candidate molecules, at different doses (non-cytotoxic), and active RAS proteins were precipitated in the presence of RAF in the lysates collected from cells, following the kit protocol validated in FIG. 5. Then, active RAS, HRAS and RAS^G12D levels were analyzed by western blot at different time points.
Here, HRASG12D overexpressed cell lines (HEK-293T/HRAS^G12D) were treated with increasing doses of Cerubudine and lysate was obtained for protein isolation at different time points (0.5 h, 1 h, 3 h, 12 h). Active RAS precipitation was performed using isolated proteins and RAS, RASG12D and HRAS protein levels were examined by Western blot. Within the scope of the results obtained, there was a decrease in active RAS protein levels depending on the dose increase, especially in the 12th hour treated samples. Cerubidine treatment in cell lines overexpressing HRASG12D reduced the interaction of active RAS protein with RAF.

COc1cccc2c1C(=O)c1c(O)c3c(c(O)c1C2=O)C[C@@](O)(C(C)=O)C[C@@H]3O[C@H]1C[C@H](N)[C@H](O)[C@H](C)O1 [Cerubidine, cerubidine]
reduction in G12D mutant HRAS versus wild type HRAS levels (5 μM and 10 μM, western blot for active RAS, HRAS and RASG12D): not wild type HRAS levels | active RAS levels (5 μM): significant decrease | active RAS levels (10 μM): significant decrease | effect on active RAS levels, dose and time of strongest effect (10 μM, at the end of 12 hours): most pronounced effect | interaction of active RAS protein with RAF (cell lines overexpressing HRASG12D): reduced | active RAS protein levels depending on the dose increase (increasing doses, 12th hour treated samples, HEK-293T/HRASG12D): decrease | mutant specificity of decrease in active RAS levels (G12D specific antibody) (membrane with G12D specific antibody): mutant specific
